According to US11419869B2, “Dosage forms and regimens for amino acid compounds” (Pliant Therapeutics, Inc., priority 2019, dated 2022):

What was measured:
[1] = target: recombinant human integrin αvβ6 (Homo sapiens (Human), UniProt P06756+P18564); assay: Solid Phase Integrin αvβ6 Binding Assay (Examples B1, B2); conditions: TGFβ1 LAP ligand, values given in four ranges, read-out: αvβ6 Inhibition IC50 (nM)-range
Outline: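 Plates coated with recombinant human αvβ6 (2 μg/mL) compete compound against recombinant TGFβ1 LAP (0.67 μg/mL) in TBS binding buffer with 0.5 mM MnCl2, 2 h at 25 °C. Bound LAP detected with biotin-anti-hLAP and peroxidase-streptavidin; IC50 by four-parameter logistic regression.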

[2] = tested on: Col1a1 expression; assay: lung slice Col1a1 expression versus DMSO control slices; conditions: FIG. 6A; compared to the DMSO vehicle control slices
[3] = tested on: lung Col1a1 expression; assay: Precision cut lung slices, chronic bleomycin, versus pirfenidone and nintedanib (Example B10); type: cell-based, mice; conditions: 7 days culture, vs DMSO vehicle, FIG. 6A
Experimental: (§1) Mice (C57BL/6) were administered 3 U/kg of bleomycin (Teva Pharmaceuticals; North Wales, Pa.) on Day 0 and 1 U/kg of bleomycin on days 14, 28, 42 and 56 via oropharyngeal aspiration while under anesthesia. At day 70, 14 days following the final bleomycin insult, precision cut lung slices were obtained. Following euthanization, 2% low gelling temp agarose was injected into the mouse lungs via the trachea. […] The lobes were then subjected to precision slicing to obtain samples for culture using a microtome (Compresstome VF-300-0Z, Precisionary; Greenville, N.C.). Individual slices were distributed in a multiwell culture plate and cultured for 7 days under control (DMSO) and test compound conditions. The viability of the slices over the course of culturing was confirmed by WST-1 assay of mitochondrial activity.
During the culture period, slices in the control group were treated with DMSO and slices in the test group were treated with a DMSO solution of one of compound 5; nintedanib; pirfenidone; a combination of nintedanib and compound 5; a combination of pirfenidone and compound 5; or the small molecule ALK5 inhibitor. Compound 5 was […] effective to equal or exceed its respective IC50 values at αvβ6 and αvβ1. The small molecule ALK5 inhibitor was analyzed at […] its reported IC50 value. Nintendanib and pirfenidone were analyzed at concentrations 10× their reported therapeutic concentrations.

[4] = tested on: COL1A1 expression; assay: Precision cut lung slices from human IPF explants, COL1A1 expression (Example B11); type: cell-based; conditions: for expression of COL1A1 (treatment alone): PCLS from 5-7 IPF lung samples, seven days, nintedanib 75 nM, pirfenidone 50 μm
Source text: Explanted lung tissue was obtained from human IPF subjects and inflated with agarose as described in the preceding examples. Biopsy cores were obtained from the agarose-inflated lung tissue. The biopsy cores were subjected to precision slicing to obtain several hundred μm thick. Individual slices were distributed in a multiwell culture plate and cultured for […] under control (DMSO) and test compound conditions. The viability of the slices over the course of culturing was confirmed by WST-1 assay of mitochondrial activity.
PCLS from 5-7 idopathic pulmonary fibrosis (IPF) lung tissue samples were cultured for seven days with one of: DMSO; Compound 5 at 200 nM; nintedanib at 75 nM; pirfenidone at 50 μm; a combination of Compound 5 at 200 nM and nintedanib at 75 nM; a combination of Compound 5 at 200 nM and pirfenidone at […]; or an Alk5 inhibitor at 1 μm. […] FIG. 6D is a bar graph showing relative expression of COL1A1 in precision cut lung slices (PCLS) from idopathic pulmonary fibrosis (IPF) lung tissue upon exposure to Comopund 5, clinical standard of care compounds nintedanib (Nin) and pirfenidone (Pirf), and an ALK5 inhibitor, all versus DMSO control.
PCLS from a single IPF lung tissue sample were cultured for seven days with Compound 5 at concentrations of […], 2 nM, 60 nM, 200 nM, and 1 μM, along with 0.1% DMSO control and an Alk5 inhibitor at 1 μM. […] COL1A1 expression is also graphed for the PCLS in the presence of 0.1% DMSO control, and an Alk5 inhibitor at 1 μM.

[5] = treatment of IPF; cited from earlier work
[6] = tested on: Type I Collagen gene Col1a1 expression; assay: Precision cut lung slices, mice under acute bleomycin exposure (Example B8); type: cell-based; conditions: 3 days culture, normalized to DMSO, FIG. 5A
Experimental: Mice (C57BL/6) were administered 3 U/kg of bleomycin (Teva Pharmaceuticals; North Wales, Pa.) on day 0 via oropharyngeal aspiration while under anesthesia. On day 14, precision cut lung slices were obtained. Following euthanization, 2% low gelling temp agarose was injected into the mouse lungs via the trachea. […] The lobes were then subjected to precision slicing to obtain samples for culture using a microtome (Compresstome VF-300-0Z, Precisionary; Greenville, N.C.). Individual slices were distributed in a multiwell culture plate and cultured for 3 days under control (DMSO) and test compound conditions.

[7] = tested on: lung Col1a1 expression; assay: Precision cut lung slices, mice under chronic bleomycin exposure (Example B9); type: cell-based; conditions: 7 days culture, normalized to DMSO, FIG. 5B
Experimental: as §1, with “after” for “following”
During the culture period, slices in the control group were treated with DMSO and slices in the test group were treated with a DMSO solution of one of: the selective antibody αvβ6 inhibitor 3G9; the αvβ1-selective small molecule inhibitor; a combination of the selective antibody αvβ6 inhibitor 3G9 and the αvβ1-selective small molecule inhibitor; compound 5; and the small molecule ALK5 inhibitor. The selective αvβ1 and αvβ6 integrin inhibitors were analyzed at ≥their respective IC90 concentrations for inhibition of TGF-beta activation. […]

recombinant human integrin αvβ6, sequence (P06756 31-992): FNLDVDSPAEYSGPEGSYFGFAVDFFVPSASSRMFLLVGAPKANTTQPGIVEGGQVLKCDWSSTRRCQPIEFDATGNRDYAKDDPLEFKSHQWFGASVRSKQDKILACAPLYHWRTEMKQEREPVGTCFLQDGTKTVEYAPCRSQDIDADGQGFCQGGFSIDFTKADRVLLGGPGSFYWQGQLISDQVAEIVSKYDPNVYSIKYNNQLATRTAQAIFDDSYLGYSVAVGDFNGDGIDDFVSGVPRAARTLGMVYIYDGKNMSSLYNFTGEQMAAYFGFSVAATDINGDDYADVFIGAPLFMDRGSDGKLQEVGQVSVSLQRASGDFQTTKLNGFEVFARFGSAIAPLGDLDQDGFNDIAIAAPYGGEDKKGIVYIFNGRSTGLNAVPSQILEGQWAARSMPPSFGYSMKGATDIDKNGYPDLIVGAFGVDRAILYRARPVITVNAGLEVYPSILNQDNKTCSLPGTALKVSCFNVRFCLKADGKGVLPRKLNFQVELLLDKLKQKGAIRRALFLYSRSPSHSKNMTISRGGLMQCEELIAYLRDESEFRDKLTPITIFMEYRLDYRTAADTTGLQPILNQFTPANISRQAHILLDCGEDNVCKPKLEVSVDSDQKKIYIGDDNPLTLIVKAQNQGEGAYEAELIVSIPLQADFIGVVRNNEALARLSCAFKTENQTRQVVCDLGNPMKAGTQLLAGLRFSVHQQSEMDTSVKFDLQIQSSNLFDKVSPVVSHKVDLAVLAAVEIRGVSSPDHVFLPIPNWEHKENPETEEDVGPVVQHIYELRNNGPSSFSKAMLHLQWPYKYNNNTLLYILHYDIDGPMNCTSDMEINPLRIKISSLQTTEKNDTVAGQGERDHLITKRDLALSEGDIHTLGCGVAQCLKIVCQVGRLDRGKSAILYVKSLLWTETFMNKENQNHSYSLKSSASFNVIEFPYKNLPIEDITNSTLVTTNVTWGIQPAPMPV
recombinant human integrin αvβ6, sequence (P18564 22-707): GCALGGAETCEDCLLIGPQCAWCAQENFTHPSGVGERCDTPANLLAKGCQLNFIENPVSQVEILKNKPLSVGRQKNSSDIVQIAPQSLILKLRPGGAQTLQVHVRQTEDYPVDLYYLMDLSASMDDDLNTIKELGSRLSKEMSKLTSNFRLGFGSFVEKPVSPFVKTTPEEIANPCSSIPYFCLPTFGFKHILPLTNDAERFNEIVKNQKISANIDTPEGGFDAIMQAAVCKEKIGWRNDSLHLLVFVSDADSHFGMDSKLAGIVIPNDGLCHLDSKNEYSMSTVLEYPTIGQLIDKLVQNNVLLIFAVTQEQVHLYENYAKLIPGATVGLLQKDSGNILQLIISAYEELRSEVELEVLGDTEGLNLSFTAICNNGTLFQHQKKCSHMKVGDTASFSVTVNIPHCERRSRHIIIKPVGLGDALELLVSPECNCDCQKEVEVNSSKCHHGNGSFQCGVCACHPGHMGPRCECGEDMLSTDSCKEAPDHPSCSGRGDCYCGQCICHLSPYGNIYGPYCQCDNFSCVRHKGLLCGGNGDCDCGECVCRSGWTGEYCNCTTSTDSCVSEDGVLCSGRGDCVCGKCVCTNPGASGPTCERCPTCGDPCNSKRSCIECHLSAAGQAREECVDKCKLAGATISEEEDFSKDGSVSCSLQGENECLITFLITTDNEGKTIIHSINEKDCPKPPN

SMILES | IC50 [1] | lung Col1a1 expression [2] | lung slice Col1a1 expression [3] | expression of COL1A1 (treatment alone) [4] | side effects [5] | therapeutic efficacy [5] | Type I Collagen gene Col1a1 expression [6] | lung Col1a1 expression [7] | lung Col1a1 expression ([4]; human IPF slices, 3 days, 3G9 ≥400 ng/mL, compound 5 179 nM, ALK5 inhibitor 1 μM, FIG. 6C)
O=C(O)[C@H](CCN(CCCCc1ccc2c(n1)NCCC2)CC(F)F)Nc1ncc(C2CC2)cn1 [Compound 146, (S)-2-((5-cyclopropylpyrimidin-2-yl)amino)-4-((2,2-difluoroethyl) (4-(5,6,7,8-tetrahydro-1,8-naphthyridin-2-yl)butyl)amino) butanoic acid] | > 1000 nM |  |  |  |  |  |  |  | 
COC(=O)c1ccc2c(c1)NC(=O)/C2=C(\Nc1ccc(N(C)C(=O)CN2CCN(C)CC2)cc1)c1ccccc1 [nintedanib] |  | slight increase | slight increase | did not significantly reduce | numerous side effects | less therapeutic efficacy than desired |  |  | 
Cc1ccc(=O)n(-c2ccccc2)c1 [pirfenidone] |  | slight increase | slight increase | did not significantly reduce | numerous side effects | less therapeutic efficacy than desired |  |  | 
CC(C)(C)c1cc(Br)cc([C@H](CC(=O)O)NC(=O)CNC(=O)c2cc(O)cc(NC3=NCC(O)CN3)c2)c1 (stereo partly drawn) [second pan-av small molecule inhibitor, (3S)—N-[3-hydroxy-5-[(1,4,5,6-tetrahydro-5-hydroxy-2-pyrimidinyl)amino]benzoyl]glycyl-3-[3-bromo-5-(1,1-dimethylethyl)phenyl]-β-alanine] |  |  |  |  |  |  | reduced Type I Collagen gene Col1a1 expression |  | 
Cc1cccc(-c2n[nH]cc2-c2ccc(F)c(-c3cnn(CCO)c3)c2)n1 [small molecule ALK5 inhibitor, 4-[2-Fluoro-5-[3-(6-methyl-2-pyridinyl)-1H-pyrazol-4-yl]phenyl]-1H-pyrazole-1-ethanol, reference compound] |  |  | substantial, statistically significant (p<0.0001 vs vehicle) decrease |  |  |  | greatest decrease | greatest decrease | decrease in lung Col1a1 expression
